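Cells were grown in 96-well plates and exposed to each compound for 48 hours at five concentrations; endpoints were interpolated linearly between bracketing concentrations, or set to the highest concentration if not reached. At the GI50, growth is halved.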 Activity calls are given as the source filed them. No stated cut-off is given here; in the data, active = GI50 up to about 1.1 µM and inactive = higher.
Key:
Experiment in all cases: DTP human tumour cell line panel, 48 h
786-0 = system: 786-0
A498 = system: A498
A549 = system: A549
ACHN = system: ACHN
CCRF-CEM = system: CCRF-CEM
COLO 205 = system: COLO 205
DU-145 = system: DU-145
EKVX = system: EKVX
HCC 2998 = system: HCC 2998
HCT-116 = system: HCT-116
HCT-15 = system: HCT-15
HL-60 = system: HL-60
HOP-62 = system: HOP-62
HOP-92 = system: HOP-92
HT-29 = system: HT-29
Hs-578T = system: Hs-578T
IGROV-1 = system: IGROV-1
K562 = system: K562
KM12 = system: KM12
LOX IMVI = system: LOX IMVI
M14 = system: M14
MCF7 = system: MCF7
MDA-MB-231 = system: MDA-MB-231
MDA-MB-435 = system: MDA-MB-435
MOLT-4 = system: MOLT-4
Malme-3M = system: Malme-3M
NCI-H226 = system: NCI-H226
NCI-H23 = system: NCI-H23
NCI-H460 = system: NCI-H460
NCI/ADR-RES = system: NCI/ADR-RES
OVCAR-4 = system: OVCAR-4
OVCAR-5 = system: OVCAR-5
OVCAR-8 = system: OVCAR-8
RPMI-8226 = system: RPMI-8226
RXF 393 = system: RXF 393
SF-268 = system: SF-268
SF-295 = system: SF-295
SF-539 = system: SF-539
SK-MEL-28 = system: SK-MEL-28
SK-MEL-5 = system: SK-MEL-5
SK-OV-3 = system: SK-OV-3
SN12C = system: SN12C
SNB-19 = system: SNB-19
SNB-75 = system: SNB-75
SR = system: SR
SW-620 = system: SW-620
T47D = system: T47D
TK-10 = system: TK-10
U-251 = system: U-251
UACC-257 = system: UACC-257
UACC-62 = system: UACC-62
UO-31 = system: UO-31
BT-549 = system: BT-549
CAKI-1 = system: CAKI-1
MDA-N = system: MDA-N
NCI-H522 = system: NCI-H522
OVCAR-3 = system: OVCAR-3
PC-3 = system: PC-3
SK-MEL-2 = system: SK-MEL-2

CC(C)=CCC12Cc3ccc(O)cc3C(C(C)CN1)C2C (stereo not drawn)
GI50 (786-0): > 100 µM (inactive)
GI50 (A498): 50.9 µM (inactive)
GI50 (A549): > 100 µM (inactive)
GI50 (ACHN): > 100 µM (inactive)
GI50 (CCRF-CEM): 46.8 µM (inactive)
GI50 (COLO 205): 36.9 µM (inactive)
GI50 (DU-145): > 100 µM (inactive)
GI50 (EKVX): > 100 µM (inactive)
GI50 (HCC 2998): 20.8 µM (inactive)
GI50 (HCT-116): 59.7 µM (inactive)
GI50 (HCT-15): 72.1 µM
GI50 (HL-60): 28.1 µM (inactive)
GI50 (HOP-62): > 100 µM (inactive)
GI50 (HOP-92): 44 µM (inactive)
GI50 (HT-29): 44.6 µM (inactive)
GI50 (Hs-578T): 67.6 µM (inactive)
GI50 (IGROV-1): > 100 µM (inactive)
GI50 (K562): 34.4 µM (inactive)
GI50 (KM12): > 100 µM (inactive)
GI50 (LOX IMVI): 42.9 µM (inactive)
GI50 (M14): 21 µM (inactive)
GI50 (MCF7): 81.3 µM (inactive)
GI50 (MDA-MB-231): > 100 µM (inactive)
GI50 (MDA-MB-435): 44.9 µM (inactive)
GI50 (MOLT-4): 52 µM (inactive)
GI50 (Malme-3M): > 100 µM (inactive)
GI50 (NCI-H226): > 100 µM (inactive)
GI50 (NCI-H23): > 100 µM (inactive)
GI50 (NCI-H460): 52.5 µM (inactive)
GI50 (NCI/ADR-RES): > 100 µM (inactive)
GI50 (OVCAR-4): > 100 µM (inactive)
GI50 (OVCAR-5): 58.9 µM (inactive)
GI50 (OVCAR-8): > 100 µM (inactive)
GI50 (RPMI-8226): 37.2 µM (inactive)
GI50 (RXF 393): > 100 µM (inactive)
GI50 (SF-268): > 100 µM (inactive)
GI50 (SF-295): 65.2 µM (inactive)
GI50 (SF-539): 72.1 µM (inactive)
GI50 (SK-MEL-28): 49.9 µM (inactive)
GI50 (SK-MEL-5): > 10 µM (inactive)
GI50 (SK-OV-3): > 100 µM (inactive)
GI50 (SN12C): > 100 µM (inactive)
GI50 (SNB-19): > 100 µM (inactive)
GI50 (SNB-75): 99.5 µM (inactive)
GI50 (SR): 39.2 µM (inactive)
GI50 (SW-620): > 100 µM (inactive)
GI50 (T47D): > 100 µM (inactive)
GI50 (TK-10): > 100 µM (inactive)
GI50 (U-251): 83.4 µM (inactive)
GI50 (UACC-257): 27.3 µM (inactive)
GI50 (UACC-62): > 100 µM (inactive)
GI50 (UO-31): 27 µM (inactive)

CC(=O)OC1COC(n2c3ccccc3c3ccc4c5ccccc5[nH]c4c32)C(OC(C)=O)C1OC(C)=O (stereo not drawn)
GI50 (A498): 32.8 µM (inactive)
GI50 (A549): 44.8 µM (inactive)
GI50 (BT-549): 89.3 µM (inactive)
GI50 (CAKI-1): 29.2 µM (inactive)
GI50 (CCRF-CEM): 70.3 µM (inactive)
GI50 (COLO 205): 39.1 µM (inactive)
GI50 (HCC 2998): 61.8 µM (inactive)
GI50 (HCT-116): 65.9 µM (inactive)
GI50 (HCT-15): 70 µM
GI50 (HOP-62): 22.9 µM (inactive)
GI50 (HOP-92): 30.1 µM (inactive)
GI50 (HT-29): 22.3 µM (inactive)
GI50 (IGROV-1): 0.0512 µM (active)
GI50 (K562): 0.6 µM (active)
GI50 (KM12): 17.8 µM (inactive)
GI50 (MDA-MB-435): 39.1 µM (inactive)
GI50 (MDA-N): 53.3 µM (inactive)
GI50 (MOLT-4): > 100 µM (inactive)
GI50 (NCI-H23): 36.8 µM (inactive)
GI50 (NCI-H460): 21.3 µM (inactive)
GI50 (NCI-H522): 18.2 µM (inactive)
GI50 (OVCAR-3): 27 µM (inactive)
GI50 (OVCAR-4): 37.6 µM (inactive)
GI50 (OVCAR-5): 23.4 µM (inactive)
GI50 (PC-3): 27.2 µM (inactive)
GI50 (RPMI-8226): 95.7 µM (inactive)
GI50 (SF-295): 15.1 µM (inactive)
GI50 (SK-MEL-28): 37.8 µM (inactive)
GI50 (SK-MEL-2): 58.1 µM (inactive)
GI50 (SK-MEL-5): 36 µM (inactive)
GI50 (SK-OV-3): 18.6 µM (inactive)
GI50 (SNB-19): 61.4 µM (inactive)
GI50 (SNB-75): 0.29 µM (active)
GI50 (SW-620): 41.2 µM (inactive)
GI50 (U-251): 29.2 µM (inactive)
GI50 (UACC-257): > 100 µM (inactive)
GI50 (UACC-62): 67.9 µM (inactive)
GI50 (UO-31): 38.6 µM (inactive)

CN(Cc1cnc2nc(N)nc(N)c2n1)c1ccc(C(=O)NC(CCC(=O)NCC(P(=O)(O)O)P(=O)(O)O)C(=O)O)cc1 (stereo not drawn)
GI50 (786-0): 81.1 µM (inactive)
GI50 (A549): 4.99 µM (inactive)
GI50 (ACHN): 3.57 µM (inactive)
GI50 (COLO 205): > 100 µM (inactive)
GI50 (DU-145): 7.16 µM (inactive)
GI50 (EKVX): > 100 µM (inactive)
GI50 (HCT-116): 0.815 µM (active)
GI50 (HCT-15): 5.94 µM
GI50 (HOP-62): 5.11 µM (inactive)
GI50 (HOP-92): < 0.01 µM (active)
GI50 (HT-29): 5.27 µM (inactive)
GI50 (Hs-578T): 37.1 µM (inactive)
GI50 (IGROV-1): 9.04 µM (inactive)
GI50 (LOX IMVI): 2.52 µM (inactive)
GI50 (M14): 6.01 µM (inactive)
GI50 (MDA-MB-231): > 100 µM (inactive)
GI50 (MDA-N): 4.97 µM (inactive)
GI50 (MOLT-4): 3.18 µM (inactive)
GI50 (Malme-3M): > 100 µM (inactive)
GI50 (NCI-H460): 4.4 µM (inactive)
GI50 (NCI-H522): 20.2 µM (inactive)
GI50 (NCI/ADR-RES): 35.5 µM (inactive)
GI50 (OVCAR-3): 23 µM (inactive)
GI50 (OVCAR-4): 1.64 µM (inactive)
GI50 (OVCAR-8): 7.6 µM (inactive)
GI50 (PC-3): 0.436 µM (active)
GI50 (SF-268): 6.11 µM (inactive)
GI50 (SF-295): 0.706 µM (active)
GI50 (SK-MEL-2): > 100 µM (inactive)
GI50 (SK-MEL-5): 13.3 µM (inactive)
GI50 (SK-OV-3): 15.7 µM (inactive)
GI50 (SN12C): 7.21 µM (inactive)
GI50 (SNB-75): 57.3 µM (inactive)
GI50 (SR): < 0.01 µM (active)
GI50 (SW-620): 4.7 µM (inactive)
GI50 (T47D): 40 µM (inactive)
GI50 (UACC-257): 12.6 µM (inactive)
GI50 (UACC-62): 4.41 µM (inactive)

— ChEMBL document CHEMBL1201862, “PubChem BioAssay data set” (2004)
